Results: US20120101083A1, “S1P1 AGONISTS COMPRISING A BICYCLIC N-CONTAINING RING” (GLAXO GROUP LIMITED, priority 2009, published 2012)
Counter-ions that a name gives are not always drawn.

Key:
[1] = molecular target: T1, S1P1 (PathHunter CHO-K1 EDG1 β-Arrestin cell line) (Homo sapiens, UniProt P21453); test: S1P-1 β-Arrestin recruitment assay; type: cell-based; settings: CHO-K1 EDG1 β-Arrestin cells, chemi-luminescence
T1 construct: host or cells: PathHunter CHO-K1 EDG1 β-Arrestin cell line
Procedure: S1P-1 β-Arrestin Recruitment Assay
β-Arrestin recruitment assays were carried out using the PathHunter CHO-K1 EDG1
β-Arrestin cell line (DiscoveRx Corporation) in a chemi-luminescence detection assay. This cell line stably expresses β-Arrestin 2 and S1P1 fused to complementing portions of β-galactosidase (‘EA’ and ‘pro-link’, respectively) which associate upon Arrestin recruitment to form functional β-galactosidase enzyme.
Cells were grown to 80% confluency in Growth Medium (F12 nutrient HAMS supplemented with 10% heat-inactivated USA FBS, 1% L-glutamax, 800 μg/ml Geneticin and 300 μg/ml Hygromycin). Cells were harvested from the flask using Enzyme Free Cell Dissociation Buffer (Gibco) and washed from flasks with Optimem solution (Gibco). Cells were then centrifuged at 1000 rpm for 2-3 min and resuspended in Assay Buffer (Prepared from Sigma kit H1387 supplemented with 20 ml/L HEPES, 4.7 ml/L NaHCO3, 0.1% pluronic acid F-68 solution, 0.1% BSA and adjusted to pH 7.4 using sodium hydroxide at 1×10^6 cells/ml. Cells were dispensed into assay plates containing compounds (100n1/well of a solution of test compound in 100% DMSO) at 1×10^4 cells/well and incubated at 37° C./5% CO2 for 90 min followed by 15 min at room temperature. 5 μl detection mix (1 part Galacton Star, 5 parts Emerald II, 19 parts Assay Buffer; DiscoveRx) were added per well and the plates incubated at room temperature for 60 min. Luminescence was quantified using a Viewlux plate reader.

[2] = molecular target: T2, S1P1 receptor (S1P1 expressing RH7777 membranes) (Homo sapiens, UniProt P21453); test: S1P1 GTPγS assay; type: biochemical; settings: tested in one of the above S1P1 assays (two GTPγS formats)
T2 construct: expressed in transfected cells; host or cells: RH7777 cells (membranes)
T2 sequence (P21453 whole entry): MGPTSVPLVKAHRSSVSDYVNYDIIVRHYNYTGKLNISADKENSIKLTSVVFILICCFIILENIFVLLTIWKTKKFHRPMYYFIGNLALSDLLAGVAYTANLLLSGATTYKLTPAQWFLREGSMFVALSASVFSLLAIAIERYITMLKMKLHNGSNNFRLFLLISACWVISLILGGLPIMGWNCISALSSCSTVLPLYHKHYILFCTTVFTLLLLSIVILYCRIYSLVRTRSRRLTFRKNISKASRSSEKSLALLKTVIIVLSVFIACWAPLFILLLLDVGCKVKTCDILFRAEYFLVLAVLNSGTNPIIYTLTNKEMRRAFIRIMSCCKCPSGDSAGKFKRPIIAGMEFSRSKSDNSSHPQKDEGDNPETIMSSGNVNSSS
How it was run: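 Membranes from RH7777 cells expressing human S1P1 (1.5 μg/well) precoupled 30 min on ice to WGA SPA beads in 20 mM HEPES pH 7.4, 10 mM MgCl2, 100 mM NaCl, with 10 μM GDP and 90 μg/ml saponin. [35S]-GTPγS 0.5 nM final added with compound; SPA signal read immediately.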

T1 sequence (P21453 whole entry): as above
T1 sequence (P32121 whole entry partner): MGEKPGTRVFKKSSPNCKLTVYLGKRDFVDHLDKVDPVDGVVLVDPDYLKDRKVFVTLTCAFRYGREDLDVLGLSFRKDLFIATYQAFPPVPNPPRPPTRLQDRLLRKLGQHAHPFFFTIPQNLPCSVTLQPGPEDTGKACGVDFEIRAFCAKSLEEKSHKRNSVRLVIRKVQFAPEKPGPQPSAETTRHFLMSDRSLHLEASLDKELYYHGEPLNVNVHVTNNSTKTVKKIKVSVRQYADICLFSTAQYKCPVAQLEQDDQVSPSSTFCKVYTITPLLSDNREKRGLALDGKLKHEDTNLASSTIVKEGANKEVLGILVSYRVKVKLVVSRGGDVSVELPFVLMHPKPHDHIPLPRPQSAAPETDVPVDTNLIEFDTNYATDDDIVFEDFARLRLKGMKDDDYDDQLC

SMILES | EC50 [1] [nM] | EC50 [2] [nM]
CC(C)Oc1ccc(-c2nc(-c3ccc4c(c3)CCN(CC(=O)N[C@H](C)CO)CC4)no2)cc1C#N [Example 78, 2-[7-(5-{3-cyano-4-[(1-methylethyl)oxy]phenyl}-1,2,4-oxadiazol-3-yl)-1,2,4,5-tetrahydro-3H-3-benzazepin-3-yl]-N-(1R)-2-hydroxy-1-methylethyl]acetamide hydrochloride] | ≤ 100 | ≤ 1000
CCNC(=O)CCCN1CCc2ccc(-c3noc(-c4ccc(OC(C)C)c(C#N)c4)n3)cc2CC1 [Example 44, 4-[7-(5-{3-cyano-4-[(1-methylethyl)oxy]phenyl}-1,2,4-oxadiazol-3-yl)-1,2,4,5-tetrahydro-3H-3-benzazepin-3-yl]-N-ethylbutanamide] | ≤ 10 | ≤ 100
CC(C)Oc1ccc(-c2nc(-c3ccc4c(c3)CCN(CC(=O)N[C@@H](C)CO)CC4)no2)cc1C#N [Example 80, 2-[7-(5-{3-cyano-4-[(1-methylethyl)oxy]phenyl}-1,2,4-oxadiazol-3-yl)-1,2,4,5-tetrahydro-3H-3-benzazepin-3-yl]-N-[(1S)-2-hydroxy-1-methylethyl]acetamide hydrochloride] | ≤ 10 | ≤ 100
Cc1c(-c2noc(-c3ccc(OC(C)C)c(C#N)c3)n2)ccc2c1CCN(C(=O)CNC(CO)CO)CC2 [Example 189, 5-[3-(3-{N-[2-hydroxy-1-(hydroxymethyl)ethyl]glycyl}-6-methyl-2,3,4,5-tetrahydro-1H-3-benzazepin-7-yl)-1,2,4-oxadiazol-5-yl]-2-[(1-methylethyl)oxy]benzonitrile] | ≤ 10 | ≤ 100
Cc1c(-c2noc(-c3cnc(OC(C)C)c(C#N)c3)n2)ccc2c1CCN(C(CO)CO)C2 [Example 134, 5-(3-{2-[2-hydroxy-1-(hydroxymethyl)ethyl]-5-methyl-1,2,3,4-tetrahydro-6-isoquinolinyl}-1,2,4-oxadiazol-5-yl)-2-[(1-methylethyl)oxy]-3-pyridinecarbonitrile hydrochloride] | ≤ 10 | ≤ 100
CC(C)Oc1ccc(-c2nc(-c3ccc4c(c3)CCN(CC(=O)NC(CO)CO)CC4)no2)cc1C#N [Example 195, 2-[7-(5-{3-cyano-4-[(1-methylethyl)oxy]phenyl}-1,2,4-oxadiazol-3-yl)-1,2,4,5-tetrahydro-3H-3-benzazepin-3-yl]-N-[2-hydroxy-1-(hydroxymethyl)ethyl]acetamide hydrochloride] | ≤ 10 | ≤ 100
CNC(=O)CCCN1CCc2ccc(-c3noc(-c4ccc(OC(C)C)c(C#N)c4)n3)cc2CC1 [Example 24, 4-[7-(5-{3-Cyano-4-[(1-methylethyl)oxy]phenyl}-1,2,4-oxadiazol-3-yl)-1,2,4,5-tetrahydro-3H-3-benzazepin-3-yl]-N-methylbutanamide] | ≤ 10 | ≤ 100
Cc1c(-c2noc(-c3ccc(OC(C)C)c(C#N)c3)n2)ccc2c1CCN(CC(=O)NC[C@@H](C)O)CC2 [Example 147, 2-[7-(5-{3-cyano-4-[(1-methylethyl)oxy]phenyl}-1,2,4-oxadiazol-3-yl)-6-methyl-1,2,4,5-tetrahydro-3H-3-benzazepin-3-yl]-N-[(2R)-2-hydroxypropyl]acetamide] | ≤ 10 | ≤ 100
CC(C)Oc1ccc(-c2nc(-c3ccc4c(c3)CCN(C[C@@H](O)CO)CC4)no2)cc1C#N [Example 74, 5-(3-{3-[(2R)-2,3-dihydroxypropyl]-2,3,4,5-tetrahydro-1H-3-benzazepin-7-yl}-1,2,4-oxadiazol-5-yl)-2-[(1-methylethyl)oxy]benzonitrile] | ≤ 100 | ≤ 100

Second part, the compound after the results:

EC50 [1] [nM] | EC50 [2] [nM] | SMILES
≤ 10 | ≤ 1000 | Cc1c(-c2noc(-c3ccc(OC(C)C)c(C#N)c3)n2)ccc2c1CCN(C(CO)CO)C2 [Example 64, 5-(3-{2-[2-hydroxy-1-(hydroxymethyl)ethyl]-5-methyl-1,2,3,4-tetrahydro-6-isoquinolinyl}-1,2,4-oxadiazol-5-yl)-2-[(1-methylethyl)oxy]benzonitrile]
≤ 100 | ≤ 1000 | Cc1c(-c2noc(-c3ccc(OC(C)C)c(C#N)c3)n2)ccc2c1CCN(C(=O)[C@@](C)(N)CO)C2 [Example 82, 2-[(1-methylethyl)oxy]-5-{3-[5-methyl-2-(2-methyl-L-seryl)-1,2,3,4-tetrahydro-6-isoquinolinyl]-1,2,4-oxadiazol-5-yl}benzonitrile]
≤ 100 | ≤ 100 | Cc1c(-c2noc(-c3ccc(OC(C)C)c(C#N)c3)n2)ccc2c1CCN(C(=O)[C@H](N)[C@@H](C)O)C2 [Example 56, 5-[3-(2-D-allothreonyl-5-methyl-1,2,3,4-tetrahydro-6-isoquinolinyl)-1,2,4-oxadiazol-5-yl]-2-[(1-methylethyl)oxy]benzonitrile]
≤ 100 | ≤ 100 | Cc1c(-c2noc(-c3ccc(OC(C)C)c(C#N)c3)n2)ccc2c1CCN(C[C@H](O)CO)CC2 [Example 153, 5-(3-{3-[(2S)-2,3-dihydroxypropyl]-6-methyl-2,3,4,5-tetrahydro-1H-3-benzazepin-7-yl}-1,2,4-oxadiazol-5-yl)-2-[(1-methylethyl)oxy]benzonitrile hydrochloride]
≤ 10 | ≤ 100 | Cc1c(-c2noc(-c3ccc(OC(C)C)c(C#N)c3)n2)ccc2c1CCN(CC(=O)NC[C@H](O)CO)C2 [Example 124, 2-[6-(5-{3-cyano-4-[(1-methylethyl)oxy]phenyl}-1,2,4-oxadiazol-3-yl)-5-methyl-3,4-dihydro-2(1H)-isoquinolinyl]-N-[(2S)-2,3-dihydroxypropyl]acetamide hydrochloride]
≤ 100 | ≤ 100 | Cc1c(-c2noc(-c3ccc(OC(C)C)c(C#N)c3)n2)ccc2c1CCN(C[C@H](O)CO)C2 [Example 71, 5-(3-{2-[(2S)-2,3-dihydroxypropyl]-5-methyl-1,2,3,4-tetrahydro-6-isoquinolinyl}-1,2,4-oxadiazol-5-yl)-2-[(1-methylethyl)oxy]benzonitrile hydrochloride]
≤ 10 | 1 | CC(C)Oc1ccc(-c2nc(-c3cccc4c3CCN(C(=O)[C@@H](N)CO)C4)no2)cc1C#N [Example 89, 2-[(1-methylethyl)oxy]-5-[3-(2-L-seryl-1,2,3,4-tetrahydro-5-isoquinolinyl)-1,2,4-oxadiazol-5-yl]benzonitrile hydrochloride]
≤ 10 | ≤ 100 | Cc1c(-c2noc(-c3ccc(OC(C)C)c(C#N)c3)n2)ccc2c1CCN(CCC(N)=O)C2 [Example 1, 3-[6-(5-{3-Cyano-4-[(1-methylethyl)oxy]phenyl}-1,2,4-oxadiazol-3-yl)-5-methyl-3,4-dihydro-2(1H)-isoquinolinyl]propanamide]
≤ 10 | ≤ 100 | Cc1c(-c2noc(-c3ccc(OC(C)C)c(C#N)c3)n2)ccc2c1CCN(CC(=O)NC(CO)CO)C2 [Example 125, 2-[6-(5-{3-cyano-4-[(1-methylethyl)oxy]phenyl}-1,2,4-oxadiazol-3-yl)-5-methyl-3,4-dihydro-2(1H)-isoquinolinyl]-N-[2-hydroxy-1-(hydroxymethyl)ethyl]acetamide hydrochloride]
≤ 10 | ≤ 100 | Cc1c(-c2noc(-c3ccc(OC(C)C)c(C#N)c3)n2)ccc2c1CCN(C(CO)CO)CC2 [Example 156, 5-(3-{3-[2-hydroxy-1-(hydroxymethyl)ethyl]-6-methyl-2,3,4,5-tetrahydro-1H-3-benzazepin-7-yl}-1,2,4-oxadiazol-5-yl)-2-[(1-methylethyl)oxy]benzonitrile hydrochloride]
